From US20140107109A1, “AMINO-DIHYDROTHIAZINE AND AMINO-DIOXIDO DIHYDROTHIAZINE COMPOUNDS AS BETA-SECRETASE ANTAGONISTS AND METHODS OF USE” (Amgen Inc., priority 2012, published 2014)
Read-outs that look alike come from different tables or passages of the source.

What was measured:
[1] = molecular target: Beta Secretase enzyme (BACE1) (Homo sapiens, UniProt P56817); assay: In vitro enzymatic BACE FRET assay; assay type: biochemical; details: read-out: BACE1 FRET assay IC50
Procedure, shortened: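 BACE1 cleavage of a 50 nM fluorophore/quencher peptide FRET substrate ran for one hour in 0.05 M acetate pH 4.2, 10% DMSO, 100 uM genapol. Tris buffer raised pH to neutrality to stop the reaction before fluorescence was read (excitation 488 nm, […]).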

[2] = system: Aβ40 in conditioned medium of cells stably expressing Amyloid Precursor Protein (APP); assay: In vitro BACE cell-based assay (HEK cell assay), Aβ40 sandwich ELISA; details: Homo sapiens, HEK293
Procedure, shortened: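 APP-stably expressing cells (40K/well, grown 24 h in DMEM/10% FBS) were treated 24 h with compounds in 10-point dose response starting at 100 μM or 10 μM, 0.1% DMSO final. Secreted Aβ40 was measured by sandwich ELISA (pAb40 capture, biotinylated 6E10 detection, europium time-resolved fluorescence); IC50 from percent inhibition.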

Cathepsin D (Cat D) = molecular target: T1, Cathepsin D (Cat D) (Homo sapiens, UniProt P07339); assay: In vitro enzymatic Cathepsin D (Cat D) FRET assay; assay type: biochemical; details: read-out: CatD IC50
T1 construct: Recombinant Cat D was expressed in CHO cells; made in house; host or cells: CHO cells
Procedure, shortened: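 Recombinant Cat D expressed in CHO cells, used at 9 nM and pre-incubated one hour with serially diluted inhibitor in DMSO. Peptide substrate carries a fluorophore and quencher flanking the cleavage site; reaction stopped with Tris buffer raising pH to neutrality, then fluorescence read.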

T1 sequence (P07339 65-412, species assumed): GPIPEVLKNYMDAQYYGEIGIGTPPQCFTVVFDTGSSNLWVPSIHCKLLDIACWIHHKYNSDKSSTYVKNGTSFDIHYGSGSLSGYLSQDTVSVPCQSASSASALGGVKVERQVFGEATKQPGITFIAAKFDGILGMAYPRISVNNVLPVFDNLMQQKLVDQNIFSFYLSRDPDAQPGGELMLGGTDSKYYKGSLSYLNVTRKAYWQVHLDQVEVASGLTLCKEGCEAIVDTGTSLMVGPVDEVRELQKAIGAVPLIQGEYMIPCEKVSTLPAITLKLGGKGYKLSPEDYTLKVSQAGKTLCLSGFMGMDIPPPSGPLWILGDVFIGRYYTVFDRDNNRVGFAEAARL
Chain of Beta Secretase enzyme (BACE1) (P56817 46-501): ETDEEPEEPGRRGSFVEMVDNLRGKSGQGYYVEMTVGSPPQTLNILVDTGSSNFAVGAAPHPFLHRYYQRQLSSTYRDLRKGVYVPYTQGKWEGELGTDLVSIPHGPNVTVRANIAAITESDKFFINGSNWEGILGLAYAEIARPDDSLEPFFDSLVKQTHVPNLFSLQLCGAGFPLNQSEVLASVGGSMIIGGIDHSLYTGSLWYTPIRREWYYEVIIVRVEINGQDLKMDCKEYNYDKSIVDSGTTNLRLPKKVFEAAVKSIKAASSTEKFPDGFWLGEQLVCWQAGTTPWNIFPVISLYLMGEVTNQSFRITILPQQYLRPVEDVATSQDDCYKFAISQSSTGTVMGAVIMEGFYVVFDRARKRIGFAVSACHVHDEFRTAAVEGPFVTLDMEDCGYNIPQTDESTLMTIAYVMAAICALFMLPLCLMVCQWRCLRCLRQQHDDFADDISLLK

IC50 (Cathepsin D (Cat D)) | IC50 ([1]; average IC50, enzyme assay) | IC50 [1] | IC50 ([2]; Aβ40, 24 h incubation) | Compound | also measured
56.1 µM | – | – | – | Cc1cc(C(F)F)cnc1C(=O)Nc1ccc(F)c([C@@]2(C)N=C(N)C3(CC3)S(=O)(=O)[C@H]2F)c1 [Example 207, N-(3-((5R,6R)-8-amino-5-fluoro-6-methyl-4,4-dioxido-4-thia-7-azaspiro[2.5]oct-7-en-6-yl)-4-fluorophenyl)-5-(difluoromethyl)-3-methyl-2-pyridinecarboxamide] | IC50 ([1]; average IC50): 0.00092 µM; IC50 ([2]; average IC50, HEK cells): 0.0067 µM
407 µM | 0.00534 µM | – | – | CC1(C)C(N)=N[C@](C)(c2cc(Nc3nccc4nc(OCCF)cnc34)ccc2F)CS1(=O)=O [Example 441, N-(3-((3R)-5-amino-3,6,6-trimethyl-1,1-dioxido-3,6-dihydro-2H-1,4-thiazin-3-yl)-4-fluorophenyl)-2-(2-fluoroethoxy)pyrido[3,4-b]pyrazin-5-amine] | IC50 ([2]; average IC50, cell assay): 0.0138 µM
199 µM | 0.00304 µM | – | – | COc1cnc2c(Nc3ccc(F)c([C@]45COC[C@H]4S(=O)(=O)C(C)(C)C(N)=N5)c3)nccc2n1 [Example 248, N-(3-((4aS,7aS)-3-amino-2,2-dimethyl-1,1-dioxido-7,7a-dihydro-2H-furo[3,4-b][1,4]thiazin-4a(5H)-yl)-4-fluorophenyl)-2-methoxypyrido[3,4-b]pyrazin-5-amine] | IC50 ([2]; average IC50, cell assay): 0.0209 µM
42.8 µM | – | 0.001 µM | – | C[C@@]1(c2cc(NC(=O)c3ccc(Cl)cn3)ccc2F)CS(=O)(=O)[C@]2(C[C@@H](F)C2)C(N)=N1 [Example 125, N-(3-((2S,4s,7R)-9-amino-2-fluoro-7-methyl-5,5-dioxido-5-thia-8-azaspiro[3.5]non-8-en-7-yl)-4-fluorophenyl)-5-chloropicolinamide] | IC50 [2]: 0.0107 µM
175 µM | – | 0.505 µM | 5.35 µM | CC1(C)C(N)=N[C@@](C)(c2cc(Nc3nccc4nc(O)cnc34)cc(F)c2F)CS1(=O)=O [Example 72, (S)-5-Amino-3-(2,3-difluoro-5-((2-hydroxypyrido[3,4-b]pyrazin-5-yl)amino)phenyl)-3,6,6-trimethyl-3,6-dihydro-2H-1,4-thiazine 1,1-dioxide] | –
164 µM | – | 0.83 µM | 5.04 µM | CC1(C)C(N)=N[C@](C)(c2cc(Nc3nccc4cc(Cl)cnc34)cc(F)c2F)CS1(=O)=O (single isomer, unassigned) [Example 70] | –
> 400 µM | – | 0.0172 µM | 0.137 µM | Cc1nc2c(Nc3ccc(F)c([C@]4(C)CS(=O)(=O)C(C)(C)C(N)=N4)c3)nccc2s1 [Example 54, N-(3-((3R)-5-amino-3,6,6-trimethyl-1,1-dioxido-3,6-dihydro-2H-1,4-thiazin-3-yl)-4-fluorophenyl)-2-methyl[1,3]thiazolo[4,5-c]pyridin-4-amine] | –
67.6 µM | – | 0.00262 µM | – | CC1(C)C(N)=N[C@](C)(c2cc(Nc3nccc4cc(C#N)cnc34)cnc2F)CS1(=O)=O [Example 385, 8-((5-((3R)-5-amino-3,6,6-trimethyl-1,1-dioxido-3,6-dihydro-2H-1,4-thiazin-3-yl)-6-fluoro-3-pyridinyl)amino)-1,7-naphthyridine-3-carbonitrile] | IC50 [2]: 0.0037 µM
90.4 µM | – | 0.00059 µM | 0.0075 µM | CC1(C)C(N)=N[C@](C)(c2cc(Nc3nccc4cc(Cl)cnc34)ccc2F)CS1(=O)=O [Example 45, N-(3-((3R)-5-amino-3,6,6-trimethyl-1,1-dioxido-3,6-dihydro-2H-1,4-thiazin-3-yl)-4-fluorophenyl)-3-chloro-1,7-naphthyridin-8-amine] | –
> 14.8 µM | – | 0.0083 µM | – | CCc1c(C(=O)Nc2ccc(F)c([C@]3(CF)CS(=O)(=O)C(C)(C)C(N)=N3)c2)nc2ccc(Cl)cn12 [Example 394, N-(3-((3S)-5-amino-3-(fluoromethyl)-6,6-dimethyl-1,1-dioxido-3,6-dihydro-2H-1,4-thiazin-3-yl)-4-fluorophenyl)-6-chloro-3-ethylimidazo[1,2-a]pyridine-2-carboxamide] | IC50 [2]: 0.0235 µM
457 µM | 0.016 µM | – | – | CC1(C)C(N)=N[C@](C)(c2cc(Nc3nccc4nc(C(F)(F)F)cnc34)cnc2F)CS1(=O)=O [Example 224, N-(5-((3R)-5-amino-3,6,6-trimethyl-1,1-dioxido-3,6-dihydro-2H-1,4-thiazin-3-yl)-6-fluoro-3-pyridinyl)-2-(trifluoromethyl)pyrido[3,4-b]pyrazin-5-amine] | IC50 ([2]; average IC50, cell assay): 0.0399 µM
65.5 µM | 0.0011 µM | – | – | C[C@]1(F)C(N)=N[C@](C)(c2cc(Nc3ncnc4cc(C#N)cnc34)ccc2F)CS1(=O)=O [Example 180, 4-((3-((3R,6R)-5-Amino-6-fluoro-3,6-dimethyl-1,1-dioxido-3,6-dihydro-2H-1,4-thiazin-3-yl)-4-fluorophenyl)amino)pyrido[3,2-d]pyrimidine-7-carbonitrile] | IC50 ([2]; average IC50, cell assay): 0.0894 µM
> 14.8 µM | 0.575 µM | – | – | CC1(C)C(N)=N[C@](C)(c2cc(NC(=O)N3CC=CCC3)ccc2F)CS1(=O)=O [Example 160, (R)—N-(3-(5-amino-3,6,6-trimethyl-1,1-dioxido-3,6-dihydro-2H-1,4-thiazin-3-yl)-4-fluorophenyl)-5,6-dihydropyridine-1(2H)-carboxamide] | IC50 ([2]; average IC50, cell assay): 0.681 µM
576 µM | – | 0.0006 µM | – | CC1(C)C(N)=N[C@](CF)(c2cc(NC(=O)c3cnc(OCC(F)(F)F)cn3)ccc2F)CS1(=O)=O [Example 405, N-(3-((3S)-5-amino-3-(fluoromethyl)-6,6-dimethyl-1,1-dioxido-3,6-dihydro-2H-1,4-thiazin-3-yl)-4-fluorophenyl)-5-(2,2,2-trifluoroethoxy)-2-pyrazinecarboxamide] | IC50 [2]: 0.027 µM
187 µM | – | 0.00239 µM | – | Cc1cc(Cl)cnc1C(=O)Nc1ccc(F)c([C@]23C[C@H]2S(=O)(=O)C(C)(C)C(N)=N3)c1 [Example 396, N-(3-((1R,6R)-4-amino-3,3-dimethyl-2,2-dioxido-2-thia-5-azabicyclo[4.1.0]hept-4-en-6-yl)-4-fluorophenyl)-5-chloro-3-methyl-2-pyridinecarboxamide] | IC50 [2]: 0.862 µM
> 14.8 µM | 0.00052 µM | – | – | COCc1cc(Cl)cnc1C(=O)Nc1ccc(F)c([C@]2(C)CS(=O)(=O)C(C)(C)C(N)=N2)c1 [Example 351, N-(3-((3R)-5-amino-3,6,6-trimethyl-1,1-dioxido-3,6-dihydro-2H-1,4-thiazin-3-yl)-4-fluorophenyl)-5-chloro-3-(methoxymethyl)-2-pyridinecarboxamide] | IC50 ([2]; average IC50, HEK cell assay): 0.0027 µM
263 µM | – | 0.0003 µM | 0.0032 µM | Cc1cc(Cl)cnc1C(=O)Nc1ccc(F)c([C@]2(C)CS(=O)(=O)C(C)(C)C(N)=N2)c1 [Example 25, N-(3-((3R)-5-amino-3,6,6-trimethyl-1,1-dioxido-3,6-dihydro-2H-1,4-thiazin-3-yl)-4-fluorophenyl)-5-chloro-3-methyl-2-pyridinecarboxamide] | –
33.9 µM | – | 3.2 µM | – | CC1(C)C(N)=N[C@](C)(c2cc(Nc3ccc4c(c3)OC(F)(F)O4)cnc2F)CS1(=O)=O [Example 414, (5R)-5-(5-((2,2-difluoro-1,3-benzodioxol-5-yl)amino)-2-fluoro-3-pyridinyl)-2,2,5-trimethyl-5,6-dihydro-2H-1,4-thiazin-3-amine 1,1-dioxide] | IC50 [2]: 2.53 µM
> 400 µM | – | 0.0065 µM | 0.0317 µM | COc1cnc2c(Nc3ccc(F)c(C4(CF)CS(=O)(=O)C(C)(C)C(N)=N4)c3)nccc2c1 (stereo not drawn) [Example 61, N-(3-(5-amino-3-(fluoromethyl)-6,6-dimethyl-1,1-dioxido-3,6-dihydro-2H-1,4-thiazin-3-yl)-4-fluorophenyl)-3-methoxy-1,7-naphthyridin-8-amine] | –
73.3 µM | – | 0.002 µM | 0.0053 µM | COc1cnc2c(Nc3ccc(F)c([C@]4(C)CS(=O)(=O)C(C)(C)C(N)=N4)c3)ncc(F)c2c1 [Example 50, N-(3-((3R)-5-amino-3,6,6-trimethyl-1,1-dioxido-3,6-dihydro-2H-1,4-thiazin-3-yl)-4-fluorophenyl)-5-fluoro-3-methoxy-1,7-naphthyridin-8-amine] | –
1000 µM | 1.22 µM | – | – | COc1cnc2c(Oc3ccc(F)c([C@]4(C)CS(=O)(=O)C(C)(C)C(N)=N4)c3)nccc2n1 [Example 303, (5R)-5-(2-fluoro-5-((2-methoxypyrido[3,4-b]pyrazin-5-yl)oxy)phenyl)-2,2,5-trimethyl-5,6-dihydro-2H-1,4-thiazin-3-amine 1,1-dioxide] | IC50 ([2]; average IC50, HEK cell assay): 2.54 µM
234 µM | 0.00511 µM | – | – | CC1(C)C(N)=N[C@](C)(c2cc(NC(=O)c3cc4ccccc4cn3)ccc2F)CS1(=O)=O [Example 343, N-(3-((3R)-5-amino-3,6,6-trimethyl-1,1-dioxido-3,6-dihydro-2H-1,4-thiazin-3-yl)-4-fluorophenyl)-3-isoquinolinecarboxamide] | IC50 ([2]; average IC50, HEK cell assay): 0.0107 µM

Compound | IC50 (Cathepsin D (Cat D)) | IC50 ([1]; average IC50, enzyme assay) | IC50 [1] | IC50 ([2]; Aβ40, 24 h incubation) | also measured
NC1=N[C@@](CF)(c2cc(Br)ccc2F)CS(=O)(=O)C12CCC2 [Example 418, (7R)-7-(5-bromo-2-fluorophenyl)-7-(fluoromethyl)-5-thia-8-azaspiro[3.5]non-8-en-9-amine 5,5-dioxide] | > 400 µM | > 40 µM | – | – | IC50 ([2]; average IC50, cell assay): > 15.6 µM
